± gives the expanded uncertainty stated by the source.
What was measured:
[1] = 100 kPa, Liquid; for viscosity: Concentric cylinders viscometry; for mass density: Vibrating tube method
[2] = xn = mol fraction of the nth substance listed; details: 100 kPa, Liquid, x2 = 0; for viscosity: Concentric cylinders viscometry; for mass density: Vibrating tube method

Row | Compound | viscosity ([1]; 293.15 K) | mass density ([1]; 293.15 K) | viscosity ([1]; 298.15 K) | mass density ([1]; 298.15 K) | viscosity ([1]; 303.15 K) | mass density ([1]; 303.15 K) | viscosity ([1]; 308.15 K) | mass density ([1]; 308.15 K) | viscosity ([1]; 313.15 K) | mass density ([1]; 313.15 K) | viscosity ([1]; 318.15 K) | mass density ([1]; 318.15 K) | viscosity ([1]; 323.15 K) | mass density ([1]; 323.15 K) | viscosity ([2]; 293.15 K) | mass density ([2]; 293.15 K) | viscosity ([2]; 298.15 K) | mass density ([2]; 298.15 K) | viscosity ([2]; 303.15 K) | mass density ([2]; 303.15 K) | other results
1 | O=Cc1ccccc1 [benzaldehyde] | 1.52 ± 0.06 mPa·s | 1046.3 ± 1 kg/m3 | 1.41 ± 0.06 mPa·s | 1041.7 ± 1 kg/m3 | 1.31 ± 0.05 mPa·s | 1037.1 ± 1 kg/m3 | 1.22 ± 0.05 mPa·s | 1032.4 ± 1 kg/m3 | 1.15 ± 0.05 mPa·s | 1027.9 ± 1 kg/m3 | 1.09 ± 0.04 mPa·s | 1023.4 ± 1 kg/m3 | 1.03 ± 0.04 mPa·s | 1019.1 ± 1 kg/m3 |  |  |  |  |  |  | 
2 | CCC(C)O (stereo not drawn) [butan-2-ol] | 3.67 ± 0.15 mPa·s | 806.7 ± 1 kg/m3 | 3.04 ± 0.12 mPa·s | 802.7 ± 1 kg/m3 | 2.54 ± 0.1 mPa·s | 798.4 ± 1 kg/m3 | 2.13 ± 0.09 mPa·s | 794.1 ± 1 kg/m3 | 1.8 ± 0.07 mPa·s | 789.8 ± 1 kg/m3 | 1.54 ± 0.06 mPa·s | 785.2 ± 1 kg/m3 | 1.33 ± 0.05 mPa·s | 780.6 ± 1 kg/m3 |  |  |  |  |  |  | 
3 | CCC(C)O (stereo not drawn) [butan-2-ol] + O=Cc1ccccc1 |  |  |  |  |  |  |  |  |  |  |  |  |  |  | 3.67 ± 0.15 mPa·s | 806.7 ± 1 kg/m3 | 3.04 ± 0.12 mPa·s | 802.7 ± 1 kg/m3 | 2.54 ± 0.1 mPa·s | 798.4 ± 1 kg/m3 | viscosity ([2]; 308.15 K): 2.13 ± 0.09 mPa·s; mass density ([2]; 308.15 K): 794.1 ± 1 kg/m3; viscosity ([2]; 313.15 K): 1.8 ± 0.07 mPa·s; mass density ([2]; 313.15 K): 789.8 ± 1 kg/m3; viscosity ([2]; 318.15 K): 1.54 ± 0.06 mPa·s; mass density ([2]; 318.15 K): 785.2 ± 1 kg/m3; viscosity ([2]; 323.15 K): 1.33 ± 0.05 mPa·s; mass density ([2]; 323.15 K): 780.6 ± 1 kg/m3
4 | CCCC(C)O (stereo not drawn) [pentan-2-ol] | 3.97 ± 0.16 mPa·s | 809.3 ± 1 kg/m3 | 3.32 ± 0.13 mPa·s | 805.3 ± 1 kg/m3 | 2.81 ± 0.11 mPa·s | 801.2 ± 1 kg/m3 | 2.37 ± 0.1 mPa·s | 797 ± 1 kg/m3 | 1.99 ± 0.08 mPa·s | 792.7 ± 1 kg/m3 | 1.66 ± 0.07 mPa·s | 788.4 ± 1 kg/m3 | 1.39 ± 0.06 mPa·s | 784 ± 1 kg/m3 |  |  |  |  |  |  | 
5 | CCCC(C)O (stereo not drawn) [pentan-2-ol] + O=Cc1ccccc1 |  |  |  |  |  |  |  |  |  |  |  |  |  |  | 3.97 ± 0.16 mPa·s | 809.3 ± 1 kg/m3 | 3.32 ± 0.13 mPa·s | 805.3 ± 1 kg/m3 | 2.81 ± 0.11 mPa·s | 801.2 ± 1 kg/m3 | viscosity ([2]; 308.15 K): 2.37 ± 0.1 mPa·s; mass density ([2]; 308.15 K): 797 ± 1 kg/m3; viscosity ([2]; 313.15 K): 1.99 ± 0.08 mPa·s; mass density ([2]; 313.15 K): 792.7 ± 1 kg/m3; viscosity ([2]; 318.15 K): 1.66 ± 0.07 mPa·s; mass density ([2]; 318.15 K): 788.4 ± 1 kg/m3; viscosity ([2]; 323.15 K): 1.39 ± 0.06 mPa·s; mass density ([2]; 323.15 K): 784 ± 1 kg/m3
6 | CC(C)O [propan-2-ol] | 2.42 ± 0.1 mPa·s | 785.4 ± 1 kg/m3 | 2.08 ± 0.08 mPa·s | 781.1 ± 1 kg/m3 | 1.8 ± 0.07 mPa·s | 776.8 ± 1 kg/m3 | 1.56 ± 0.06 mPa·s | 772.4 ± 1 kg/m3 | 1.36 ± 0.06 mPa·s | 768 ± 1 kg/m3 | 1.19 ± 0.05 mPa·s | 763.4 ± 1 kg/m3 | 1.05 ± 0.04 mPa·s | 758.8 ± 1 kg/m3 |  |  |  |  |  |  | 
7 | CC(C)O [propan-2-ol] + O=Cc1ccccc1 |  |  |  |  |  |  |  |  |  |  |  |  |  |  | 2.42 ± 0.1 mPa·s | 785.4 ± 1 kg/m3 | 2.08 ± 0.08 mPa·s | 781.1 ± 1 kg/m3 | 1.8 ± 0.07 mPa·s | 776.8 ± 1 kg/m3 | viscosity ([2]; 308.15 K): 1.56 ± 0.06 mPa·s; mass density ([2]; 308.15 K): 772.4 ± 1 kg/m3; viscosity ([2]; 313.15 K): 1.36 ± 0.06 mPa·s; mass density ([2]; 313.15 K): 768 ± 1 kg/m3; viscosity ([2]; 318.15 K): 1.19 ± 0.05 mPa·s; mass density ([2]; 318.15 K): 763.4 ± 1 kg/m3; viscosity ([2]; 323.15 K): 1.05 ± 0.04 mPa·s; mass density ([2]; 323.15 K): 758.8 ± 1 kg/m3
